Source: US7601743B2, “Cyano anthranilamide insecticides” (Syngenta Crop Protection, Inc., priority 2005, dated 2009)

How the values were obtained:
Assay type in all cases: in vivo
Diabrotica balteata = test: Activity against Diabrotica balteata (sprayed maize seedlings); conditions: 144 h, 400 ppm spray on maize seedlings, 2nd instar larvae, 6 days, read-out: percentage reduction in the population (% activity)
Method: Maize seedlings are sprayed with an aqueous emulsion spray mixture comprising 400 ppm of active ingredient and, after the spray coating has dried on, populated with 10 larvae (2nd instar) of Diabrotica balteata and introduced into a plastic container. 6 days later, the percentage reduction in the population (% activity) is determined by comparing the number of dead larvae between the treated and untreated plants.

Spodoptera littoralis = test: Activity against Spodoptera littoralis (sprayed soya plants); conditions: 72 h, 400 ppm spray on young soya plants, 1st instar, 3 days, read-out: percentage reduction in the population and in the feeding damage (% activity)
Method: (§1) Young soya plants are sprayed with an aqueous emulsion spray mixture comprising 400 ppm of active ingredient and, after the spray coating has dried on, populated with 10 caterpillars (1st instar) of Spodoptera littoralis and introduced into a plastic container. 3 days later, the percentage reduction in the population and in the feeding damage (% activity) are determined by comparing the number of dead caterpillars and the feeding damage between the treated and untreated plants.

Heliothis virescens = test: Activity against Heliothis virescens (foliar application); conditions: 144 h, 400 ppm spray on young soya plants, 1st instar, 6 days, read-out: percentage reduction in the population and in the feeding damage (% activity)
Method: as §1, with “Heliothis virescens” for “Spodoptera littoralis”, “6” for “3”

Plutella xylostella = test: Activity against Plutella xylostella; conditions: 72 h, 400 ppm spray on young cabbage plants, 3rd instar, 3 days, read-out: percentage reduction in the population and in the feeding damage (% activity)
Method: as §1, with “cabbage” for “soya”, “(3rd” for “(1st”, “Plutella xylostella” for “Spodoptera littoralis”

Measured: inhibition at 400 ppm

Cc1cc(C#N)cc(C(=O)NC2(C3CC3)CC2)c1NC(=O)c1cc(C(F)(F)F)nn1-c1ncccc1Cl [A.1.1, 2-(3-Chloro-pyridin-2-yl)-5-trifluoromethyl-2H-pyrazole-3-carboxylic acid [2-(bicyclopropyl-1-ylcarbamoyl)-4-cyano-6-methyl-phenyl]-amide]
> 80%: all assays above
